One data set deals with Sprague-Dawley rats. As to conditions: 5575 mg/kg/day of mCBS (free base), continuous IV infusion 7 days. On the procedure: The objective of these studies was to determine the toxicity of the test item, mCBS, when administered by continuous (24 hours/day) intravenous infusion through a surgically implanted catheter for 7 consecutive days to Sprague-Dawley rats.
The test and control item dose formulations of mCBS (in the form of the heptasodium salt mCBS.Na) were administered to groups of rats by continuous (24 hours/day) intravenous infusion for 7 consecutive days as described in the Table 14 below.
Parameters monitored during this study included mortality, clinical observations, body weights and food consumption. In addition, hematology, coagulation and clinical chemistry parameters were evaluated on Day 9. Blood samples were collected from the animals at timepoints relative to the start of the infusion for analysis of test item concentration in plasma. At termination (Day 9), all animals were euthanized and subjected to a gross necropsy examination. Organ weights were measured on selected organs and a selected list of tissues, including gross lesions, were retained and prepared for microscopic evaluation.

A further data set is described as follows: Solubility in vehicle. The class given is physicochemical. As to conditions: in water/aqueous. On the procedure:
The STX studies described below were carried out inter alia to provide a preliminary understanding of the toxicity and PK profile of β-O-methyl cellobioside sulfate compounds such as mCBS.Na utilised in the present invention.

The subject of a further data set is Sprague Dawley rats. On the procedure:
This study examined acute toxicity from single IV administration of mCBS in rats with doses up to 1000 mg/kg.
The acute toxicity of β-O-methyl cellobioside sulfate (mCBS) was assessed in Sprague Dawley rats following intravenous administration of a single bolus dose. A total of five groups of n=3 adult female rats were treated with 10, 30, 100, 300 and 1000 mg/kg doses of mCBS test item in the form of the sodium salt (mCBS.Na) in this dose range finding study. […] The rats were then observed for 7 days prior to termination without necropsy.

The values below come from patent US11628179B2, “Compounds for treating and preventing extracellular histone mediated pathologies” (priority 2017, dated 2023).

Turning to “Sodium β-O-Methyl Cellobioside Sulfate [mCBS.Na]”, the mortality result in the data set with Sprague-Dawley rats is “death of one female”. The “Solubility in Vehicle” value in “Solubility in vehicle” was ~250 mg/mL in water/aqueous. For the same substance, the “MTD estimate from potency assessment, sodium salt” value in the data set with Sprague Dawley rats (IV bolus single and 7-day studies, corrected for potency) was ~745 mg/kg. For the same substance, in the data set with Sprague Dawley rats (single IV bolus, female rats, 7 days observation, dose as sodium salt), the “maximum tolerated dose (MTD)” value is given as 1000 mg/kg.
